# The source made the active and inactive calls.
# Columns and labels:
# [1] = biological target: T1, Ubiquitin-conjugating enzyme E2 N (Homo sapiens, UniProt P61088); format: functional;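 further: Dose-response confirmation in a TR-FRET assay detecting UBC13-driven polyubiquitin chain formation, inhibition measured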
# T1 sequence (P61088 whole entry): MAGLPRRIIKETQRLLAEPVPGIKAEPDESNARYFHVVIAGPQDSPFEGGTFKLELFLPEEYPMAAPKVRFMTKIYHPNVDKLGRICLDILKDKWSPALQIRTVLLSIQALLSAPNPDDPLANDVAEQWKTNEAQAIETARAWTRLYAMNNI
# [2] = biological target: DNA dC->dU-editing enzyme APOBEC-3G (Homo sapiens, UniProt Q9HC16); assay: Dose Response confirmation of small molecule APOBEC3G DNA Deaminase Inhibitors via a fluorescence-based single-stranded DNA deaminase assay. [Related pubchem assays (depositor defined):AID493012, AID493028]; format: functional
# Leucine aminopeptidase = biological target: T2, Leucine aminopeptidase (Plasmodium falciparum 3D7, UniProt Q8IL11); assay: P. falciparum M17LAP inhibitors, primary screen, biochemical, fluorogenic H-Leu-NHMec substrate, 1536-well (AID 1619); format: functional
# T2 sequence (Q8IL11 whole entry): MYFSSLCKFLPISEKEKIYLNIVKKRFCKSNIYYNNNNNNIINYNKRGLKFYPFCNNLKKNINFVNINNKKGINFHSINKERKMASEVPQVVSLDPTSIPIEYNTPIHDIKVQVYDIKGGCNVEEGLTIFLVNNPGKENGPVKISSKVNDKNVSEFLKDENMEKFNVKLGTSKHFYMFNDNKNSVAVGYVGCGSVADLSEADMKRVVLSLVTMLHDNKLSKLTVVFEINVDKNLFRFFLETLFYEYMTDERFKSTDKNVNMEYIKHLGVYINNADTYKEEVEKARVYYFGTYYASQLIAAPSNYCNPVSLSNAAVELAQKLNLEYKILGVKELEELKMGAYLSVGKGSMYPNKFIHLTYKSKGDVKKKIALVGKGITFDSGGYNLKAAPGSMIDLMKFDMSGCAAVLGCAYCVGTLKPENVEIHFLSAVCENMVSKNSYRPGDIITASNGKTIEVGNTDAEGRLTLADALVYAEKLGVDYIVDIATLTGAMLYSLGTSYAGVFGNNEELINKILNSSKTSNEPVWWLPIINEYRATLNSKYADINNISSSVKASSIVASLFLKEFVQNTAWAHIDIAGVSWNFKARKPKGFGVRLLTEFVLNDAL
# [3] = THP-1 cell cytotoxicity, dose response, cytotoxicity control for Vif-APOBEC3G degradation inhibitor project, THP-1 cells (AID 1117359); format: functional; conditions: Human immunodeficiency virus 1, THP-1
# [4] = biological target: T3, Heat shock factor protein 1 (Mus musculus, UniProt P38532); assay: HSF1 potentiators in luciferase reporter cells, confirmation, cell-based, NIH3T3, luminescence, dose retest (AID 435004); format: functional;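 further: stress induced by proteasome inhibitor MG132 added 30 min after compound; luciferase reporter driven by HSF1 response element in NIH3T3 cells; actives raise luminescence as potentiators of the MG132 stress response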
# T3 sequence (P38532 whole entry): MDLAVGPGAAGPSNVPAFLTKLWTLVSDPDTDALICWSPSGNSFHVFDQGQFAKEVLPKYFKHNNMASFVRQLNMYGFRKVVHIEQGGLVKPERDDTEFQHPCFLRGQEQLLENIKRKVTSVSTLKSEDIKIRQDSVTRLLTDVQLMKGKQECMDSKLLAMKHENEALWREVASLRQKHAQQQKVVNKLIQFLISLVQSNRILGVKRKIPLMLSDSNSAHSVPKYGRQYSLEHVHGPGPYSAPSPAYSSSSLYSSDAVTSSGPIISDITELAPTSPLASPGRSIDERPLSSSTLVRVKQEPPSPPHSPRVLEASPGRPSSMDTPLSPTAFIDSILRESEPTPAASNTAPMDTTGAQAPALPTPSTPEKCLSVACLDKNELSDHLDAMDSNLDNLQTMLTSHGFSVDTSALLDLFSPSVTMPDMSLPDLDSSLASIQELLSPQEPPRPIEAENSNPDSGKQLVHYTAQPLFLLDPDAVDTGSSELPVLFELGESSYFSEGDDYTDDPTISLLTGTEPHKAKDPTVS
# [5] = biological target: Glyceraldehyde-3-phosphate dehydrogenase (Homo sapiens, UniProt P04406)
# Glyceraldehyde-3-phosphate dehydrogenase, sequence (P04406 whole entry): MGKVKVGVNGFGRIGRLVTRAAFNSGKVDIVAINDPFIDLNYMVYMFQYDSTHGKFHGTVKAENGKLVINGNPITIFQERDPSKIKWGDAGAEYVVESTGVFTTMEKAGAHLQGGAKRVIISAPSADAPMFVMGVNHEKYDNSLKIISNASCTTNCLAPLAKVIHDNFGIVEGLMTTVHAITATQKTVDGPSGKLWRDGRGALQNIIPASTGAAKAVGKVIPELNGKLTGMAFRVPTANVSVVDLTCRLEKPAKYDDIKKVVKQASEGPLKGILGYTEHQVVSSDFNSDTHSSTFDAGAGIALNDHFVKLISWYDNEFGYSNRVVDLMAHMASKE
# DNA dC->dU-editing enzyme APOBEC-3G, sequence (Q9HC16 whole entry): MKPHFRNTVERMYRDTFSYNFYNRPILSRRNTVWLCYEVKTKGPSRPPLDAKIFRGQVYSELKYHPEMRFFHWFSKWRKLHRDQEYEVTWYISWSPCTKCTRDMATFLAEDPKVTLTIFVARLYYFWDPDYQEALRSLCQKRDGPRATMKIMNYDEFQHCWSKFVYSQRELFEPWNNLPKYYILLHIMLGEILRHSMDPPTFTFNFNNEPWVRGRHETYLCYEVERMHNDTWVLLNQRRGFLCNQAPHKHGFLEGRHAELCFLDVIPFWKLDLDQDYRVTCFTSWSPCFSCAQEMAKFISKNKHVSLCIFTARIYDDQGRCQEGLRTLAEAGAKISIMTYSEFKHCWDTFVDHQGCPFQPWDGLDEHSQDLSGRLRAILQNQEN
smiles,measurement,setting,value
N=C(N)Nc1ccc2[nH]c3c(c2c1)C[C@@]1(O)[C@H]2Cc4ccc(O)c5c4[C@@]1(CCN2CC1CC1)[C@H]3O5,IC50,[1],> 20 µM (inactive)
same,IC50,[2],24.4 µM (active)
Cc1ccc(NC(=O)CSc2ncc(S(=O)(=O)c3ccccc3)c(O)n2)cc1C,IC50,Leucine aminopeptidase,4.56 µM (active)
CC1CCc2[nH]c3ccc(C(=O)N(C)CC(=O)Nc4ccc(F)cc4)cc3c2C1 (configuration not stated),CC50,[3],> 40 µM (active)
O=C(O)C1CCCCC1C(=O)Nc1ccc2c(c1)CCC2 (configuration not stated),IC50,Leucine aminopeptidase,9.16 µM (active)
same,EC50,[4],> 260 µM (inactive)
CCOc1ccc(C(CC(=O)O)C(=O)O)cc1 (configuration not stated),IC50,[5],> 100 µM (not active)
